Data taken from patent publication US20110028566A1, “COMPOSITIONS AND PRODUCTS CONTAINING CYCLOALIPHATIC DIOL ANTIMICROBIAL AGENTS AND METHODS OF USING THE COMPOSITIONS AND PRODUCTS” (EASTMAN CHEMICAL COMPANY, priority 2009, published 2011).

Assays:
Assay in all cases: Microbial challenge testing in BPW
Type in all cases: cell-based
Escherichia coli = conditions: BPW, w/v % in label, average of replicates; for Grade code, E. coli, 3 Day: 3 days incubation; for Grade code, E. coli, 14 Day: 14 days incubation; for Grade code, E. coli, 30 Day: 30 days incubation
Procedure, shortened: (§1)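 Test materials, dosed as w/v % in BPW pH 7.0 with 1% dextrose, were challenged with bacteria at 10^5–10^6 cfu/mL starting count. Inocula came from 96 h or longer TSB-dextrose cultures, and counts were checked by PCA spread-plating. Samples were incubated 14 days at 35 °C, then at ambient temperature.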

Pseudomonas aeruginosa = conditions: for Grade code, P. aeruginosa, 3 Days / Grade code, P. aeruginosa, 13 Days / Grade code, P. aeruginosa, 30 Days: BPW, w/v % in label, average of replicates
Procedure, shortened: as §1

Streptococcus mutans = conditions: for Grade code, S. mutans, 3 Day / Grade code, S. mutans, 13 Day / Grade code, S. mutans, 30 Days: BPW, w/v % in label, average of replicates
Procedure, shortened: as §1

Staphylococcus aureus = conditions: for Grade code, S. aureus, 3 Day / Grade code, S. aureus, 14 Day / Grade code, S. aureus, 30 Day: BPW, w/v % in label, average of replicates
Procedure, shortened: as §1

Burkholderia cepacia = conditions: for Grade code, B. cepacia, 3 Days / Grade code, B. cepacia, 14 Days / Grade code, B. cepacia, 30 Days: BPW, w/v % in label, average of replicates
Procedure, shortened: as §1

[1] = 3 days incubation, listed as 0.5% AB
[2] = 3 days incubation, listed as 1.25% AB
[3] = 3 days incubation, listed as 2.5% AB
[4] = 13 days incubation, listed as 0.5% AB
[5] = 13 days incubation, listed as 1.25% AB
[6] = 13 days incubation, listed as 2.5% AB
[7] = 30 days incubation, listed as 0.5% AB
[8] = 30 days incubation, listed as 1.25% AB
[9] = 30 days incubation, listed as 2.5% AB
[10] = 14 days incubation, listed as 0.5% AB
[11] = 14 days incubation, listed as 1.25% AB
[12] = 14 days incubation, listed as 2.5% AB

OCC1CCC(CO)CC1 (stereo not drawn) [1,4-CHDM, 1,4-cyclohexanedimethanol]
Grade code, E. coli, 3 Day (Escherichia coli; listed as 0.5% AB): 5 (More than 10,000 colonies estimated (thus >100,000 cfu/mL))
Grade code, E. coli, 3 Day (Escherichia coli; listed as 1.25% AB): 4 (1001 to 10,000 colonies (thus 10,000 cfu/mL to 100,000 cfu/mL))
Grade code, E. coli, 3 Day (Escherichia coli; listed as 2.5% AB): 3 (101 to 1000 colonies (thus 1000 to 10,000 cfu/mL))
Grade code, E. coli, 14 Day (Escherichia coli; listed as 0.5% AB): 4 (1001 to 10,000 colonies (thus 10,000 cfu/mL to 100,000 cfu/mL))
Grade code, E. coli, 14 Day (Escherichia coli; listed as 1.25% AB): 4 (1001 to 10,000 colonies (thus 10,000 cfu/mL to 100,000 cfu/mL))
Grade code, E. coli, 14 Day (Escherichia coli; listed as 2.5% AB): 2 (52 to 100 colonies counted (thus 520 to 1000 cfu/mL))
Grade code, E. coli, 30 Day (Escherichia coli; listed as 0.5% AB): 4 (1001 to 10,000 colonies (thus 10,000 cfu/mL to 100,000 cfu/mL))
Grade code, E. coli, 30 Day (Escherichia coli; listed as 1.25% AB): 4 (1001 to 10,000 colonies (thus 10,000 cfu/mL to 100,000 cfu/mL))
Grade code, E. coli, 30 Day (Escherichia coli; listed as 2.5% AB): 0 (No growth detected or <1 colony (thus <10 cfu/mL))
Grade code P. aeruginosa (Pseudomonas aeruginosa; 0.5%, 3 days incubation): 4 (1001 to 10,000 colonies (thus 10,000 cfu/mL to 100,000 cfu/mL))
Grade code P. aeruginosa (Pseudomonas aeruginosa; 0.5%, 13 days incubation): 4 (1001 to 10,000 colonies (thus 10,000 cfu/mL to 100,000 cfu/mL))
Grade code P. aeruginosa (Pseudomonas aeruginosa; 0.5%, 30 days incubation): 4 (1001 to 10,000 colonies (thus 10,000 cfu/mL to 100,000 cfu/mL))
Grade code P. aeruginosa (Pseudomonas aeruginosa; 1.25%, 3 days incubation): 4 (1001 to 10,000 colonies (thus 10,000 cfu/mL to 100,000 cfu/mL))
Grade code P. aeruginosa (Pseudomonas aeruginosa; 1.25%, 13 days incubation): 3 (101 to 1000 colonies (thus 1000 to 10,000 cfu/mL))
Grade code P. aeruginosa (Pseudomonas aeruginosa; 1.25%, 30 days incubation): 4 (1001 to 10,000 colonies (thus 10,000 cfu/mL to 100,000 cfu/mL))
Grade code P. aeruginosa (Pseudomonas aeruginosa; 2.5%, 3 days incubation): 3 (101 to 1000 colonies (thus 1000 to 10,000 cfu/mL))
Grade code P. aeruginosa (Pseudomonas aeruginosa; 2.5%, 13 days incubation): 2 (52 to 100 colonies counted (thus 520 to 1000 cfu/mL))
Grade code P. aeruginosa (Pseudomonas aeruginosa; 2.5%, 30 days incubation): 0 (No growth detected or <1 colony (thus <10 cfu/mL))
Grade code, P. aeruginosa, 3 Days (Pseudomonas aeruginosa; [1]): 4 (1001 to 10,000 colonies (thus 10,000 cfu/mL to 100,000 cfu/mL))
Grade code, P. aeruginosa, 3 Days (Pseudomonas aeruginosa; [2]): 4 (1001 to 10,000 colonies (thus 10,000 cfu/mL to 100,000 cfu/mL))
Grade code, P. aeruginosa, 3 Days (Pseudomonas aeruginosa; [3]): 3 (101 to 1000 colonies (thus 1000 to 10,000 cfu/mL))
Grade code, P. aeruginosa, 13 Days (Pseudomonas aeruginosa; [4]): 4 (1001 to 10,000 colonies (thus 10,000 cfu/mL to 100,000 cfu/mL))
Grade code, P. aeruginosa, 13 Days (Pseudomonas aeruginosa; [5]): 3 (101 to 1000 colonies (thus 1000 to 10,000 cfu/mL))
Grade code, P. aeruginosa, 13 Days (Pseudomonas aeruginosa; [6]): 2 (52 to 100 colonies counted (thus 520 to 1000 cfu/mL))
Grade code, P. aeruginosa, 30 Days (Pseudomonas aeruginosa; [7]): 4 (1001 to 10,000 colonies (thus 10,000 cfu/mL to 100,000 cfu/mL))
Grade code, P. aeruginosa, 30 Days (Pseudomonas aeruginosa; [8]): 4 (1001 to 10,000 colonies (thus 10,000 cfu/mL to 100,000 cfu/mL))
Grade code, P. aeruginosa, 30 Days (Pseudomonas aeruginosa; [9]): 0 (No growth detected or <1 colony (thus <10 cfu/mL))
Grade code S. mutans (Streptococcus mutans; 0.5%, 3 days incubation): 4 (1001 to 10,000 colonies (thus 10,000 cfu/mL to 100,000 cfu/mL))
Grade code S. mutans (Streptococcus mutans; 0.5%, 13 days incubation): 4 (1001 to 10,000 colonies (thus 10,000 cfu/mL to 100,000 cfu/mL))
Grade code S. mutans (Streptococcus mutans; 0.5%, 30 days incubation): 4 (1001 to 10,000 colonies (thus 10,000 cfu/mL to 100,000 cfu/mL))
Grade code S. mutans (Streptococcus mutans; 1.25%, 3 days incubation): 4 (1001 to 10,000 colonies (thus 10,000 cfu/mL to 100,000 cfu/mL))
Grade code S. mutans (Streptococcus mutans; 1.25%, 13 days incubation): 2 (52 to 100 colonies counted (thus 520 to 1000 cfu/mL))
Grade code S. mutans (Streptococcus mutans; 1.25%, 30 days incubation): 2 (52 to 100 colonies counted (thus 520 to 1000 cfu/mL))
Grade code S. mutans (Streptococcus mutans; 2.5%, 3 days incubation): 2 (52 to 100 colonies counted (thus 520 to 1000 cfu/mL))
Grade code S. mutans (Streptococcus mutans; 2.5%, 13 days incubation): 0 (No growth detected or <1 colony (thus <10 cfu/mL))
Grade code S. mutans (Streptococcus mutans; 2.5%, 30 days incubation): 0 (No growth detected or <1 colony (thus <10 cfu/mL))
Grade code, S. mutans, 3 Day (Streptococcus mutans; [1]): 4 (1001 to 10,000 colonies (thus 10,000 cfu/mL to 100,000 cfu/mL))
Grade code, S. mutans, 3 Day (Streptococcus mutans; [2]): 4 (1001 to 10,000 colonies (thus 10,000 cfu/mL to 100,000 cfu/mL))
Grade code, S. mutans, 3 Day (Streptococcus mutans; [3]): 2 (52 to 100 colonies counted (thus 520 to 1000 cfu/mL))
Grade code, S. mutans, 13 Day (Streptococcus mutans; [4]): 4 (1001 to 10,000 colonies (thus 10,000 cfu/mL to 100,000 cfu/mL))
Grade code, S. mutans, 13 Day (Streptococcus mutans; [5]): 2 (52 to 100 colonies counted (thus 520 to 1000 cfu/mL))
Grade code, S. mutans, 13 Day (Streptococcus mutans; [6]): 0 (No growth detected or <1 colony (thus <10 cfu/mL))
Grade code, S. mutans, 30 Days (Streptococcus mutans; [7]): 4 (1001 to 10,000 colonies (thus 10,000 cfu/mL to 100,000 cfu/mL))
Grade code, S. mutans, 30 Days (Streptococcus mutans; [8]): 2 (52 to 100 colonies counted (thus 520 to 1000 cfu/mL))
Grade code, S. mutans, 30 Days (Streptococcus mutans; [9]): 0 (No growth detected or <1 colony (thus <10 cfu/mL))
Grade code S. aureus (Staphylococcus aureus; 0.5%, 3 days incubation): 4 (1001 to 10,000 colonies (thus 10,000 cfu/mL to 100,000 cfu/mL))
Grade code S. aureus (Staphylococcus aureus; 0.5%, 14 days incubation): 4 (1001 to 10,000 colonies (thus 10,000 cfu/mL to 100,000 cfu/mL))
Grade code S. aureus (Staphylococcus aureus; 0.5%, 30 days incubation): 4 (1001 to 10,000 colonies (thus 10,000 cfu/mL to 100,000 cfu/mL))
Grade code S. aureus (Staphylococcus aureus; 1.25%, 3 days incubation): 3 (101 to 1000 colonies (thus 1000 to 10,000 cfu/mL))
Grade code S. aureus (Staphylococcus aureus; 1.25%, 14 days incubation): 2.7
Grade code S. aureus (Staphylococcus aureus; 1.25%, 30 days incubation): 4 (1001 to 10,000 colonies (thus 10,000 cfu/mL to 100,000 cfu/mL))
Grade code S. aureus (Staphylococcus aureus; 2.5%, 3 days incubation): 1.7
Grade code S. aureus (Staphylococcus aureus; 2.5%, 14 days incubation): 1 (1 to 51 colonies counted (thus 10 to 510 cfu/mL))
Grade code S. aureus (Staphylococcus aureus; 2.5%, 30 days incubation): 0 (No growth detected or <1 colony (thus <10 cfu/mL))
Grade code, S. aureus, 3 Day (Staphylococcus aureus; [1]): 4 (1001 to 10,000 colonies (thus 10,000 cfu/mL to 100,000 cfu/mL))
Grade code, S. aureus, 3 Day (Staphylococcus aureus; [2]): 3 (101 to 1000 colonies (thus 1000 to 10,000 cfu/mL))
Grade code, S. aureus, 3 Day (Staphylococcus aureus; [3]): 1.7
Grade code, S. aureus, 14 Day (Staphylococcus aureus; [10]): 4 (1001 to 10,000 colonies (thus 10,000 cfu/mL to 100,000 cfu/mL))
Grade code, S. aureus, 14 Day (Staphylococcus aureus; [11]): 2.7
Grade code, S. aureus, 14 Day (Staphylococcus aureus; [12]): 1 (1 to 51 colonies counted (thus 10 to 510 cfu/mL))
Grade code, S. aureus, 30 Day (Staphylococcus aureus; [7]): 4 (1001 to 10,000 colonies (thus 10,000 cfu/mL to 100,000 cfu/mL))
Grade code, S. aureus, 30 Day (Staphylococcus aureus; [8]): 4 (1001 to 10,000 colonies (thus 10,000 cfu/mL to 100,000 cfu/mL))
Grade code, S. aureus, 30 Day (Staphylococcus aureus; [9]): 0 (No growth detected or <1 colony (thus <10 cfu/mL))
Grade code B. cepacia (Burkholderia cepacia; 0.5%, 3 days incubation): 4 (1001 to 10,000 colonies (thus 10,000 cfu/mL to 100,000 cfu/mL))
Grade code B. cepacia (Burkholderia cepacia; 0.5%, 14 days incubation): 4 (1001 to 10,000 colonies (thus 10,000 cfu/mL to 100,000 cfu/mL))
Grade code B. cepacia (Burkholderia cepacia; 0.5%, 30 days incubation): 4 (1001 to 10,000 colonies (thus 10,000 cfu/mL to 100,000 cfu/mL))
Grade code B. cepacia (Burkholderia cepacia; 1.25%, 3 days incubation): 4 (1001 to 10,000 colonies (thus 10,000 cfu/mL to 100,000 cfu/mL))
Grade code B. cepacia (Burkholderia cepacia; 1.25%, 14 days incubation): 2 (52 to 100 colonies counted (thus 520 to 1000 cfu/mL))
Grade code B. cepacia (Burkholderia cepacia; 1.25%, 30 days incubation): 4 (1001 to 10,000 colonies (thus 10,000 cfu/mL to 100,000 cfu/mL))
Grade code B. cepacia (Burkholderia cepacia; 2.5%, 3 days incubation): 0 (No growth detected or <1 colony (thus <10 cfu/mL))
Grade code B. cepacia (Burkholderia cepacia; 2.5%, 14 days incubation): 0 (No growth detected or <1 colony (thus <10 cfu/mL))
Grade code B. cepacia (Burkholderia cepacia; 2.5%, 30 days incubation): 0 (No growth detected or <1 colony (thus <10 cfu/mL))
Grade code, B. cepacia, 3 Days (Burkholderia cepacia; [1]): 4 (1001 to 10,000 colonies (thus 10,000 cfu/mL to 100,000 cfu/mL))
Grade code, B. cepacia, 3 Days (Burkholderia cepacia; [2]): 4 (1001 to 10,000 colonies (thus 10,000 cfu/mL to 100,000 cfu/mL))
Grade code, B. cepacia, 3 Days (Burkholderia cepacia; [3]): 0 (No growth detected or <1 colony (thus <10 cfu/mL))
Grade code, B. cepacia, 14 Days (Burkholderia cepacia; [10]): 4 (1001 to 10,000 colonies (thus 10,000 cfu/mL to 100,000 cfu/mL))
Grade code, B. cepacia, 14 Days (Burkholderia cepacia; [11]): 2 (52 to 100 colonies counted (thus 520 to 1000 cfu/mL))
Grade code, B. cepacia, 14 Days (Burkholderia cepacia; [12]): 0 (No growth detected or <1 colony (thus <10 cfu/mL))
Grade code, B. cepacia, 30 Days (Burkholderia cepacia; [7]): 4 (1001 to 10,000 colonies (thus 10,000 cfu/mL to 100,000 cfu/mL))
Grade code, B. cepacia, 30 Days (Burkholderia cepacia; [8]): 4 (1001 to 10,000 colonies (thus 10,000 cfu/mL to 100,000 cfu/mL))
Grade code, B. cepacia, 30 Days (Burkholderia cepacia; [9]): 0 (No growth detected or <1 colony (thus <10 cfu/mL))
